The values below come from patent US9989535B2, “Methods and reagents for analyzing protein-protein interfaces” (Warp Drive Bio, Inc., priority 2015, dated 2018).

The structures appear in SMILES notation.

Holding throughout (format): binding
The target in assay [1] is T1, KRASGTP/G12C (Homo sapiens, UniProt P01116+P62942, G12C).
T1 construct: KRASGTP/G12C (in-house, residues 1-169); made in house
As to the kind of experiment: Disulfide cross-linking efficiency by mass spectrometry, with or without FKBP12. Particulars: 2 μM KRAS, 10 μM ligand, 4 hours RT, MS. On the procedure:
Experimental protocol: In order to follow the kinetics of disulfide crosslinking reactions, Agilent 6230 TOF-LC/MS and Agilent 1260 HPLC instruments employing a AdvanceBio RP-mAb C4 column (2.1×100 mm, 3.5 μm) and equipped with an auto-sampler were used. HPLC grade acetonitrile and water (each containing 1.0 mM ammonium formate and 1% formic acid by volume) were used as mobile phase with the following ramp: 0.6 ml/min flow rate, water:acetonitrile=95:5 from 0.0 to 13.0 min ramping to water:acetonitrile=5:95 from 13.0 to 17.0 min. Total time=17.0 min.
All crosslinking reactions were performed in 1.5 mL amber colored glass vials equipped with 0.5 mL glass inserts. A water-soluble peptide (SEQ ID NO: 1: […]) was employed as an internal standard. Although the actual sequence of the internal standard is inconsequential, choice of amino acid residues were critical to avoid interference in the crosslinking assays. […] All reactions and standard solutions were prepared in HEPES (pH 7.4, 1.0 mM MgCl2) buffer.
Prior to every reaction, a standard curve was obtained for the individual components using a series of standard solutions (an example of standard curve analysis for FKBP12 is shown in Table 3 below). Using the data from standard curve, μmol of protein samples were plotted against the ratio of areas (sample:std) and a linear fit (y=mx+c) was employed to obtain the slope and intercept. The value of slope and intercept involved in these standard curves were accounted for during evaluation of the substrate and product concentration before and during the course of the reaction. For every substrate/product, an initial injection was followed up by a blank injection to verify presence of any residual protein/reagents. Based on this analysis the sequence of auto-sampler can be adjusted to included appropriate number of blank injections for removal of residual components, if any. The MS spectra were analyzed using Agilent MassHunter v B.07.0 software.
In a representative experiment to assess the presenter dependency of ligand cross-linking on the target protein, KRASGTP/G12C and either C3- or C4-SLF ligand were incubated in the presence or absence of FKBP12 at concentrations of 2 μM KRAS, 10 μM FKBP12, 10 μM C3- or C4-SLF for 4 hours at room temperature in 12.5 mM HEPES pH 7.4, 75 mM NaCl, 1 mM MgCl2, 3% DMSO. Analysis of the amount of KRAS undergoing disulfide cross-linking with the ligand using the method above.

For assay [2], the target named is T1, KRASGTP/G12C. As to the kind of experiment: Cross-linking gel shift assay (12% SDS-PAGE), with or without FKBP12. Particulars: 60 μM KRAS, 180 μM FKBP12, 180 μM ligand, quenched by MMTS. On the procedure:
In parallel to mass spectrometry analysis, cross-linking reactions with C3- or C4-SLF were subjected to gel shift assay using 12% SDS-PAGE in the presence or absence of FKBP12 at the same experimental condition described above except that cross-linking reactions were set up at higher concentrations (60 μM KRAS, 180 μM FKBP12, and 180 μM C3- or C4-SLF) and they were quenched by MMTS to terminate the reaction.

The target in the next assay is T2, KRASGTP/S39C lite (Homo sapiens, UniProt P01116, C118S/C51S/C80L/G12V/S39C).
T2 construct: residues 1-169 containing G12V/S39C/C51S/C80L/C118S; made in house
The assay can be described thus: Formation of KRASGTP/S39C lite/C2-FK506 conjugates, SDS-PAGE. On the procedure: (§1) Experimental Protocol: A 1:2 molar ratio of target protein and compound are mixed together in 12.5 mM HEPES pH 7.4, 75 mM NaCl buffer containing 2% DMSO. The reaction is incubated at 37° C. for 30 min, followed by overnight incubation at room temperature. Cross-linking efficiency is assessed by SDS-PAGE gel. Conjugates migrate slower than non-cross-linked target protein. For thiol reactive compounds, the Cys specific attachment of the compound to the target protein can be further confirmed by SDS-PAGE after the addition of 100 mM DTT to the reaction mixture, which reduces the conjugate back into its components.
Experimental Protocol: A 1:2 molar ratio of KRASGTP/S39C lite and C2-FK506 are mixed together in 12.5 mM HEPES pH 7.4, 75 mM NaCl buffer containing 2% DMSO. The reaction is incubated at 37° C. for 30 min, followed by overnight incubation at room temperature. Cross-linking efficiency is assessed by SDS-PAGE gel. Attachment of C2-FK506 to Cysteine 39 on KRASGTP/S39C lite is also assessed by incubation of the reaction mixture with 100 mM DTT.

For another assay, the target named is T3, KRASGTP/G12C lite (Homo sapiens, UniProt P01116, C118S/C51S/C80L/G12C).
T3 construct: residues 1-169 containing G12C/C51S/C80L/C118S; made in house
The assay can be described thus: Formation of KRASGTP/G12C lite/SFAX9DS conjugates, SDS-PAGE. Particulars: 1:2 protein:compound. The procedure: as §1
(§2) Experimental Protocol: A 1:2 molar ratio of KRASGTP/G12C lite and SFAX9DS are mixed together in 12.5 mM HEPES pH 7.4, 75 mM NaCl buffer containing 2% DMSO. The reaction is incubated at 37° C. for 30 min, followed by overnight incubation at room temperature. Cross-linking efficiency is assessed by SDS-PAGE gel. Wild-type CypA also cross-linked with the compound. Cysteine 52 as a reactive Cysteine on CypA and was mutated to Serine to abrogate presenter cross-linking.

In another assay the target is T4, CypAC52S (Homo sapiens, UniProt P62937, C52S).
T4 construct: made in house
T4 sequence (P62937 whole entry C52S): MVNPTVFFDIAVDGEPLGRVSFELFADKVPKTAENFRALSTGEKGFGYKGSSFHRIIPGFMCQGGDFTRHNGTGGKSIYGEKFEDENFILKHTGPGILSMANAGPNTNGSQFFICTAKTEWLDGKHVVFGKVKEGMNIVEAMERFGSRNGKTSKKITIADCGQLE
As to the kind of experiment: Presenter cross-linking with SFAX9DS, SDS-PAGE. The procedure: as §2

The target of another assay is T5, KRASGTP/S39C lite/FKBP12 (Homo sapiens, UniProt P01116+P62942, C118S/C51S/C80L/G12V/S39C).
T5 construct: residues 1-169 containing G12V/S39C/C51S/C80L/C118S; made in house
As to the kind of experiment: Ternary complex formation by SEC and SDS-PAGE. Particulars: SEC profile and SDS-PAGE of elution peaks. The procedure:
(§3) A 1:2:2 molar ratio of compound, presenter protein, and target protein are mixed together in 12.5 mM HEPES pH 7.4, 75 mM NaCl buffer containing 2% DMSO. The reaction is incubated at 37° C. for 30 min, followed by overnight incubation at room temperature. Pure complex is isolated by Size Exclusion Chromatography (SEC) purification. The reaction mixture is directly injected on a Superdex 75 column (CV 120 mL) pre-equilibrated with buffer containing 12.5 mM HEPES pH 7.4, 75 mM NaCl. Complex elutes at a higher molecular weight than unreacted target protein and presenter protein. To confirm presence of complex in the elution peak, samples are assessed by SDS-PAGE.
(§4) The reaction is incubated at 37° C. for 30 min, followed by overnight incubation at room temperature. Pure complex is isolated by Size Exclusion Chromatography (SEC) purification. The reaction mixture is directly injected on a Superdex 75 column (CV 120 mL) pre-equilibrated with buffer containing 12.5 mM HEPES pH 7.4, 75 mM NaCl. Complex elutes at around 69 mL post injection and unreacted KRASGTP/S39C lite and FKBP12 elutes at around 75 mL and 87 mL post injection respectively. To confirm the presence of KRASGTP/S39C lite and FKBP12 in the elution peak, samples are also assessed by SDS-PAGE.
For orientation: SEC sorts molecules by how far they enter the pores of the column.

Assay [3] has as its target T6, KRASGDP/S39C lite/CypAC52S (Homo sapiens, UniProt P01116+P62937, C118S/C51S/C52S/C80L/G12V/S39C).
T6 construct: residues 1-169 containing G12V/S39C/C51S/C80L/C118S; made in house
The assay can be described thus: Ternary complex formation by SEC and SDS-PAGE. Particulars: SEC profile and SDS-PAGE of elution peaks. On the procedure:
as §3
as §4, with “KRASGDP/S39C” for “KRASGTP/S39C”, “CypAC52S” for “FKBP12”, “80” for “87”

On to `CCC(C)(C)C(=O)C(=O)N1CCCC[C@H]1C(=O)O[C@H](CCc1ccc(OC)c(OC)c1)c1cccc(NC(=O)CCCSSc2ccccn2)c1` [Compound C4-SLF, (R)-3-(3,4-dimethoxyphenyl)-1-(3-(4-(pyridin-2-yldisulfanyl)butanamido)phenyl)propyl (S)-1-(3,3-dimethyl-2-oxopentanoyl)piperidine-2-carboxylate], for which the “% × link to KRAS” value at KRASGTP/G12C [1] (FKBP12 absent (−)) was found to be 7.0%; at KRASGTP/G12C [1] (FKBP12 present (+) 10 μM), 69.8%. Also, the “Ligand cross-linking efficiency in the presence of FKBP12, gel shift” value on KRASGTP/G12C [2] is “boosted significantly”.

Regarding `CO[C@H]1C[C@@H](C)C/C(C)=C/[C@@H](CCCC(=O)NCCSSc2ccccn2)C(=O)C[C@H](O)[C@@H](C)[C@@H](/C(C)=C/[C@@H]2CC[C@@H](O)[C@H](OC)C2)OC(=O)[C@@H]2CCCCN2C(=O)C(=O)[C@]2(O)O[C@H]1[C@@H](OC)C[C@H]2C` [Compound C2-FK506], at KRASGTP/S39C lite (1:2 protein:compound, 37° C. 30 min then overnight RT), the “Cross-linking efficiency with KRASGTP/S39C lite” value is recorded as “cross-links efficiently”. The “Site specificity of attachment” value on KRASGTP/S39C lite (reaction mixture + 100 mM DTT) is listed as “specific for Cysteine 39”.

With `COC(=O)[C@@H]1CCCN(C(=O)[C@H](Cc2cccc(O)c2)NC(=O)[C@@H](NC(=O)CCOCCOCCSSc2ccccn2)C(C)C)N1` [SFAX9DS], the “Cross-linking efficiency with KRASGTP/G12C lite” value on KRASGTP/G12C lite is given as “cross-links efficiently”. The “Cross-linking of presenter CypAC52S to compound” value at CypAC52S is given as “does not cross-link”.

Consider `CCC(C)(C)C(=O)C(=O)N1CCCC[C@H]1C(=O)OCCCC(=O)NCCSSc1ccccn1` [Compound C2-Holt], for which the “Formation of KRASGTP/S39C lite/C2-Holt/FKBP12 complex” value at KRASGTP/S39C lite/FKBP12 was “confirm the formation”.

In the case of `COC(=O)[C@@H]1CCCN(C(=O)[C@H](Cc2cccc(O)c2)NC(=O)[C@@H](NC(=O)CCCSSc2ccccn2)C(C)C)N1` [SFAC4DS, methyl (S)-1-((S)-3-(3-hydroxyphenyl)-2-((S)-3-methyl-2-(4-(pyridin-2-yldisulfanyl)butanamido)butanamido)propanoyl)hexahydropyridazine-3-carboxylate], the “Formation of KRASGDP/S39C lite/SFAC4DS/CypAC52S complex” value in assay [3] is given as “confirm the formation”.
